Source: patent US20240016784A1, “Y BOX BINDING PROTEIN 1 INHIBITORS” (Oregon Health & Science University, priority 2020, published 2024)

How the values were obtained:
[1] = test system: NCI/ADR-RES; experiment: NCI-60 cell line panel; type: cell-based; conditions: Homo sapiens, 48 hours
Text: (§1) FIG. 17: Assay of SU056 in NCI-60 cell line panel.

[2] = test system: IGROV1; experiment: NCI-60 cell line panel; type: cell-based; conditions: Homo sapiens, IGROV-1, 48 hours
Text: as §1

[3] = test system: OVCAR-3; experiment: NCI-60 cell line panel; type: cell-based; conditions: Homo sapiens, 48 hours
Text: as §1

[4] = test system: NCI-H322M; experiment: NCI-60 cell line panel; type: cell-based; conditions: Homo sapiens, 48 hours
Text: as §1

[5] = test system: NCI-H522; experiment: NCI-60 cell line panel; type: cell-based; conditions: Homo sapiens, 48 hours
Text: as §1

[6] = test system: SK-OV-3; experiment: NCI-60 cell line panel; type: cell-based; conditions: Homo sapiens, 48 hours
Text: as §1

[7] = test system: MOLT-4; experiment: NCI-60 cell line panel; type: cell-based; conditions: Homo sapiens, 48 hours
Text: as §1

[8] = test system: BT-549; experiment: NCI-60 cell line panel; type: cell-based; conditions: Homo sapiens, 48 hours
Text: as §1

[9] = test system: U251; experiment: NCI-60 cell line panel; type: cell-based; conditions: Homo sapiens, U-251, 48 hours
Text: as §1

[10] = test system: RPMI-8226; experiment: NCI-60 cell line panel; type: cell-based; conditions: Homo sapiens, 48 hours
Text: as §1

[11] = test system: SR; experiment: NCI-60 cell line panel; type: cell-based; conditions: Homo sapiens, 48 hours
Text: as §1

[12] = test system: CAKI-1; experiment: NCI-60 cell line panel; type: cell-based; conditions: Homo sapiens, 48 hours
Text: as §1

[13] = test system: HOP-62; experiment: NCI-60 cell line panel; type: cell-based; conditions: Homo sapiens, 48 hours
Text: as §1

[14] = test system: SW-620; experiment: NCI-60 cell line panel; type: cell-based; conditions: Homo sapiens, 48 hours
Text: as §1

[15] = test system: T-47D; experiment: NCI-60 cell line panel; type: cell-based; conditions: Homo sapiens, T47D, 48 hours
Text: as §1

[16] = test system: OVCAR-5; experiment: NCI-60 cell line panel; type: cell-based; conditions: Homo sapiens, 48 hours
Text: as §1

[17] = test system: NCI-H226; experiment: NCI-60 cell line panel; type: cell-based; conditions: Homo sapiens, 48 hours
Text: as §1

[18] = test system: OVCAR-8; experiment: NCI-60 cell line panel; type: cell-based; conditions: Homo sapiens, 48 hours
Text: as §1

[19] = test system: UACC-62; experiment: NCI-60 cell line panel; type: cell-based; conditions: Homo sapiens, 48 hours
Text: as §1

[20] = test system: SF-295; experiment: NCI-60 cell line panel; type: cell-based; conditions: Homo sapiens, 48 hours
Text: as §1

[21] = test system: ACHN; experiment: NCI-60 cell line panel; type: cell-based; conditions: Homo sapiens, 48 hours
Text: as §1

[22] = test system: OVCAR-4; experiment: NCI-60 cell line panel; type: cell-based; conditions: Homo sapiens, 48 hours
Text: as §1

[23] = test system: HL-60(TB); experiment: NCI-60 cell line panel; type: cell-based; conditions: Homo sapiens, 48 hours
Text: as §1

[24] = test system: A549/ATCC; experiment: NCI-60 cell line panel; type: cell-based; conditions: Homo sapiens, 48 hours
Text: as §1

[25] = test system: NCI-H460; experiment: NCI-60 cell line panel; type: cell-based; conditions: Homo sapiens, 48 hours
Text: as §1

[26] = test system: PC-3; experiment: NCI-60 cell line panel; type: cell-based; conditions: Homo sapiens, 48 hours
Text: as §1

[27] = test system: LOX IMVI; experiment: NCI-60 cell line panel; type: cell-based; conditions: Homo sapiens, 48 hours
Text: as §1

[28] = test system: HS 578T; experiment: NCI-60 cell line panel; type: cell-based; conditions: Homo sapiens, 48 hours
Text: as §1

[29] = test system: RXF 393; experiment: NCI-60 cell line panel; type: cell-based; conditions: Homo sapiens, 48 hours
Text: as §1

[30] = test system: COLO 205; experiment: NCI-60 cell line panel; type: cell-based; conditions: Homo sapiens, 48 hours
Text: as §1

[31] = test system: SK-MEL-2; experiment: NCI-60 cell line panel; type: cell-based; conditions: Homo sapiens, 48 hours
Text: as §1

[32] = test system: HOP-92; experiment: NCI-60 cell line panel; type: cell-based; conditions: Homo sapiens, 48 hours
Text: as §1

[33] = test system: K-562; experiment: NCI-60 cell line panel; type: cell-based; conditions: Homo sapiens, K562, 48 hours
Text: as §1

[34] = test system: HT29; experiment: NCI-60 cell line panel; type: cell-based; conditions: Homo sapiens, HT-29, 48 hours
Text: as §1

[35] = target: YB-1 (Homo sapiens, UniProt P67809); experiment: Cellular Thermal Shift Assay (CETSA) in OVCAR8 cells; type: binding; set-up: endogenous in cells; host or cells: OVCAR8; conditions: SU056 2.5 μM, 1.5 h, read-out: increase in thermal stability (Tm shift) of YB-1
Protocol: The cellular thermal shift assay (CETSA) is based on the principle of protein-ligand interactions causing a shift in protein thermal stability (Savitski et al., 2014). When a protein interacts with ligand, its thermal stability increases, and this principle allows identification of which protein targets that are engaged by small molecules or drug candidates. We used this assay to identify protein targets of SU056. OVCAR8 cells were treated with SU056 (2.5 μM) for 1.5 h, and protein lysates were analyzed for a thermal shift. The heat maps represent the thermal stability of 804 soluble proteins in the presence and absence of SU056 compare with 37° C. (FIG. 3A).
Cellular Thermal Shift Assay (CETSA): The assay was performed as previously described (Savitski et al., 2014). Briefly, OVCAR8 cells were treated with vehicle (DMSO) or SU056 (2.5 μM) at 70-80% confluency for 1.5 h. Cells were harvested and washed with 1×PBS twice. Cells were pelleted and resuspended in PBS. 10 different PCR tubes with 1×10^6 cells/tube (in 100 μL PBS) were prepared for both the groups. Tubes were exposed to respective temperatures (37, 41, 44, 47, 50, 53, 56, 59, 63, 67° C.) for 3 min using a thermal cycler (Bio-Rad, CA, USA) followed by 2 min incubation at room temperature.

Chain of YB-1 (P67809 whole entry): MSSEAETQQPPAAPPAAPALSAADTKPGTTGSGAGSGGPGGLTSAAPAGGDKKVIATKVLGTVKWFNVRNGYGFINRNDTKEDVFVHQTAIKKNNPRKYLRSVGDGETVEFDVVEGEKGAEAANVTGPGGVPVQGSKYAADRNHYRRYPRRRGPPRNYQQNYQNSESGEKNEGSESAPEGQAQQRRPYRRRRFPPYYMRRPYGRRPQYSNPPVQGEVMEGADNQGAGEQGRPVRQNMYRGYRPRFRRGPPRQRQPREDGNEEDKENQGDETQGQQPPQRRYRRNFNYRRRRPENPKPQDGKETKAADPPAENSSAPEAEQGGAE

Compound: O=C1OCC2=C1C(c1cccc(F)c1)c1cc3c(cc1N2CCO)OCO3 (centres unmarked) [SU056, 9-(3-fluorophenyl)-5-(2-hydroxyethyl)-6,9-dihydro-[1,3]dioxolo[4,5-g]furo[3,4-b]quinolin-8(5H)-one]
- IC50 [1]: 2.02 µM
- IC50 [2]: 4.19 µM
- IC50 [3]: 1.27 µM
- IC50 [4]: 4.01 µM
- IC50 [5]: 2.59 µM
- IC50 [6]: 1.73 µM
- IC50 [7]: 3.02 µM
- IC50 [8]: 1.46 µM
- IC50 [9]: 2.5 µM
- IC50 [10]: 2.28 µM
- IC50 [11]: 0.294 µM
- IC50 [12]: 1.24 µM
- IC50 [13]: 2.19 µM
- IC50 [14]: 1.65 µM
- IC50 [15]: 2.18 µM
- IC50 [16]: 4.33 µM
- IC50 [17]: 50 µM
- IC50 [18]: 3.18 µM
- IC50 [19]: 2.25 µM
- IC50 [20]: 1.2 µM
- IC50 [21]: 3.03 µM
- IC50 [22]: 46.8 µM
- IC50 [23]: 1.26 µM
- IC50 [24]: 8.74 µM
- IC50 [25]: 2.08 µM
- IC50 [26]: 1.46 µM
- IC50 [27]: 2.35 µM
- IC50 [28]: 1.42 µM
- IC50 [29]: 1.51 µM
- IC50 [30]: 1.46 µM
- IC50 [31]: 2.46 µM
- IC50 [32]: 3.1 µM
- IC50 [33]: 0.353 µM
- IC50 [34]: 1.52 µM
- ΔTm at 2.5 µM [35]: 5.92 ± 0.86 °C
